Laboratory results as given in patent US11413291B2, “Pesticidally active heterocyclic derivatives with sulfur containing substituents” (SYNGENTA PARTICIPATIONS AG, priority 2017, dated 2022).

What was measured:
Format in all cases: in vivo
Spodoptera littoralis [1] = test: Example B1: Spodoptera littoralis, sprayed cotton leaf discs; details: foliar, 72 h, application rate 200 ppm, L1 larvae, 3 days after infestation
Protocol: Cotton leaf discs were placed onto agar in 24-well microtiter plates and sprayed with aqueous test solutions prepared from 10′000 ppm DMSO stock solutions. After drying the leaf discs were infested with five L1 larvae. The samples were assessed for mortality, anti-feeding effect, and growth inhibition in comparison to untreated samples 3 days after infestation. Control of Spodoptera littoralis by a test sample is given when at least one of the categories mortality, anti-feedant effect, and growth inhibition is higher than the untreated sample.

Spodoptera littoralis [2] = test: Example B2: Spodoptera littoralis, systemic uptake via lettuce roots from agar; details: 144 h, test rate 12.5 ppm, 6 days after infestation, read-out: effect in at least one of the three categories (mortality, anti-feeding, or growth inhibition)
Description: Test compounds were applied by pipette from 10′000 ppm DMSO stock solutions into 24-well plates and mixed with agar. Lettuce seeds were placed onto the agar and the multi well plate was closed by another plate which contained also agar. After 7 days the compound was absorbed by the roots and the lettuce grew into the lid plate. The lettuce leaves were then cut off into the lid plate. Spodoptera eggs were pipetted through a plastic stencil onto a humid gel blotting paper and the lid plate was closed with it. The samples were assessed for mortality, anti-feedant effect and growth inhibition in comparison to untreated samples 6 days after infestation.

Plutella xylostella = test: Example B3: Plutella xylostella, artificial diet; details: 120 h, application rate 200 ppm, L2 larvae, 5 days after infestation, read-out: effect in at least one of the two categories (mortality or growth inhibition)
Protocol: 24-well microtiter plates with artificial diet were treated with aqueous test solutions prepared from 10,000 ppm DMSO stock solutions by pipetting. After drying, the plates were infested with L2 larvae (10 to 15 per well). The samples were assessed for mortality and growth inhibition in comparison to untreated samples 5 days after infestation.

Diabrotica balteata = test: Example B4: Diabrotica balteata, sprayed maize sprouts; details: 96 h, application rate 200 ppm, L2 larvae, 4 days after infestation, read-out: effect in at least one of the two categories (mortality or growth inhibition)
Protocol: Maize sprouts placed onto an agar layer in 24-well microtiter plates were treated with aqueous test solutions prepared from 10,000 ppm DMSO stock solutions by spraying. After drying, the plates were infested with L2 larvae (6 to 10 per well). The samples were assessed for mortality and growth inhibition in comparison to untreated samples 4 days after infestation.

Myzus persicae [3] = test: Example B5: Myzus persicae feeding/contact, sprayed sunflower leaf discs; details: Myzus persicae, foliar, 144 h; application rate 200 ppm; mixed ages; 6 days after infestation
Protocol: Sunflower leaf discs were placed onto agar in a 24-well microtiter plate and sprayed with aqueous test solutions prepared from 10,000 ppm DMSO stock solutions. After drying, the leaf discs were infested with an aphid population of mixed ages. The samples were assessed for mortality 6 days after infestation.

Myzus persicae [4] = test: Example B6: Myzus persicae systemic, pea seedling roots in test solution; details: Myzus persicae, 144 h; test rate 24 ppm; mixed ages; 6 days
Protocol: Roots of pea seedlings infested with an aphid population of mixed ages were placed directly into aqueous test solutions prepared from 10,000 DMSO stock solutions. The samples were assessed for mortality 6 days after placing seedlings into test solutions.

Bemisia tabaci = test: Example B7: Bemisia tabaci, sprayed cotton leaf discs; details: foliar, 144 h, application rate 200 ppm, adult white flies, 6 days after incubation
Protocol: Cotton leaf discs were placed on agar in 24-well microtiter plates and sprayed with aqueous test solutions prepared from 10,000 ppm DMSO stock solutions. After drying the leaf discs were infested with adult white flies. The samples were checked for mortality 6 days after incubation.

Euschistus heros = test: Example B8: Euschistus heros, sprayed soybean leaves; details: Euschistus heros, 120 h; application rate 200 ppm; N2 nymphs; 5 days after infestation; read-out: effect in at least one of the two categories (mortality or growth inhibition)
Protocol: Soybean leaves on agar in 24-well microtiter plates were sprayed with aqueous test solutions prepared from 10,000 ppm DMSO stock solutions. After drying the leaves were infested with N2 nymphs. The samples were assessed for mortality and growth inhibition in comparison to untreated samples 5 days after infestation.

Tetranychus urticae = test: Example B10: Tetranychus urticae, sprayed bean leaf discs; details: foliar, 192 h, application rate 200 ppm, mixed population (mobile stages), 8 days after infestation
Protocol: Bean leaf discs on agar in 24-well microtiter plates were sprayed with aqueous test solutions prepared from 10,000 ppm DMSO stock solutions. After drying the leaf discs were infested with a mite population of mixed ages. The samples were assessed for mortality on mixed population (mobile stages) 8 days after infestation.

[5] = test system: Frankliniella occidentalis; test: Example B11: Frankliniella occidentalis, sprayed sunflower leaf discs; details: foliar, 168 h, application rate 200 ppm, mixed ages, 7 days after infestation
Protocol: Sunflower leaf discs were placed on agar in 24-well microtiter plates and sprayed with aqueous test solutions prepared from 10,000 DMSO stock solutions. After drying the leaf discs were infested with a Frankliniella population of mixed ages. The samples were assessed for mortality 7 days after infestation.

CCn1c(C(F)(F)F)cc2nc(-c3ncc(C(C)(C)C#N)cc3S(=O)(=O)CC)n(C)c2c1=O [Compound P3, 2-[6-[5-ethyl-3-methyl-4-oxo-6-(trifluoromethyl)imidazo[4,5-c]pyridin-2-yl]-5-ethylsulfonyl-3-pyridyl]-2-methyl-propanenitrile]
≥ 80%: percent control (mortality, anti-feedant effect or growth inhibition) at 200 ppm (Spodoptera littoralis [1]) | percent effect (mortality, anti-feeding or growth inhibition) at 12.5 ppm (Spodoptera littoralis [2]) | percent effect (mortality or growth inhibition) at 200 ppm (Plutella xylostella) | percent effect (mortality or growth inhibition) at 200 ppm (Diabrotica balteata) | mortality at 200 ppm (Myzus persicae [3]) | mortality at 24 ppm (Myzus persicae [4]) | mortality at 200 ppm (Bemisia tabaci) | percent effect (mortality or growth inhibition) at 200 ppm (Euschistus heros) | mortality at 200 ppm (Tetranychus urticae) | mortality at 200 ppm [5]
